Values joined by “and” are separate entries in the source; they are usually repeats but may differ in a detail not shown here. Equal entries are not always repeated. “Also recorded” adds a separate entry of the source.
T1: G-CSF receptor expressed on human monocytes (Homo sapiens, UniProt Q99062)
T1 construct: Both cell lines are known to express the G-CSF-R; host or cells: THP-1 (human monocytic cell line), intact cells
T1 sequence (Q99062 25-836): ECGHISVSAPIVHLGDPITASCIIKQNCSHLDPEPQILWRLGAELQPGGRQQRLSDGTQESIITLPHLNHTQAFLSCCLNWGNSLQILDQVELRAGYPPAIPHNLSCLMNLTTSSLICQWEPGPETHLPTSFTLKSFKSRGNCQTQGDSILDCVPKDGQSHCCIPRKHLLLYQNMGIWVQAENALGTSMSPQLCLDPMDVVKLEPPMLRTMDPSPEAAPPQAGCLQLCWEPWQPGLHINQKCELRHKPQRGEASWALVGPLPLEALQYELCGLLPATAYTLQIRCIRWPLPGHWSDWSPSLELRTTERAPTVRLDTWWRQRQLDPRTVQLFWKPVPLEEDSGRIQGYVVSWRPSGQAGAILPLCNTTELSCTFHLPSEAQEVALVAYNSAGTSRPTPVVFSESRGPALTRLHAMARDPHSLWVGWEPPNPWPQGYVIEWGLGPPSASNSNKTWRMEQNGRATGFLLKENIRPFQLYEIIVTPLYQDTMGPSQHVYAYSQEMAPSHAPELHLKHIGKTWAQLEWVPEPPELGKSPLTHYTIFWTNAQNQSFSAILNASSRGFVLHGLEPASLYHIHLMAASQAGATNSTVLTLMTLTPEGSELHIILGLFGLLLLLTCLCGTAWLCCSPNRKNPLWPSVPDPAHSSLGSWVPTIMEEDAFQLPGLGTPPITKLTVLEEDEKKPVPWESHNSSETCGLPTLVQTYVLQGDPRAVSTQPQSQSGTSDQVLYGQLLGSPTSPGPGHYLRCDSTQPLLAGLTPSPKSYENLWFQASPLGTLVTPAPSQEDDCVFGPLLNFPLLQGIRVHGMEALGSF

T2: G-CSF receptor on neuronal (SH-SY5Y) cells (Homo sapiens, UniProt Q99062)
T2 construct: Both cell lines are known to express the G-CSF-R; host or cells: SH-SY5Y (human neuroblastoma cell line, adherent cells), intact cells
T2 sequence (Q99062 25-836): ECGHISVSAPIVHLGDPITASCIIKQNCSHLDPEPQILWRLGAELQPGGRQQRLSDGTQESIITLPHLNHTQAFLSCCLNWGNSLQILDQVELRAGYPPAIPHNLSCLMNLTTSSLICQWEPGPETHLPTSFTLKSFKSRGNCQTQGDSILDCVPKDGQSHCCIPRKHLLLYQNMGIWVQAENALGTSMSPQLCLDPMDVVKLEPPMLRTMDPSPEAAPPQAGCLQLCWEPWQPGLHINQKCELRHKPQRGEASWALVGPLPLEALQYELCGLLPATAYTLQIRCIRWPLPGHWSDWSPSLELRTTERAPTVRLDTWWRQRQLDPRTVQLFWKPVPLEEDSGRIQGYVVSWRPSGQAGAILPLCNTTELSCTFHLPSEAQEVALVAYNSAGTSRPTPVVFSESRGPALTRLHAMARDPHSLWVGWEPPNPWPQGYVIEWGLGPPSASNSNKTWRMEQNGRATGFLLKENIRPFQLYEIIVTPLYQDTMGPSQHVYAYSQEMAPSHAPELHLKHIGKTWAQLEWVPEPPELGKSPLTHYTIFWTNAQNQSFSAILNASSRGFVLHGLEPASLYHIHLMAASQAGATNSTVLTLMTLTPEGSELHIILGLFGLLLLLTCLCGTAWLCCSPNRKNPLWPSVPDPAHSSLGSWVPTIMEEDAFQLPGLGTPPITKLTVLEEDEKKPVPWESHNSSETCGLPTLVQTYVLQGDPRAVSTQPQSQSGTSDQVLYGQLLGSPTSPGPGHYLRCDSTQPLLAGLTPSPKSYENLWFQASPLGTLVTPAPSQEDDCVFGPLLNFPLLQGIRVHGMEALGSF

T3: G-CSF receptor on monocytic (THP-1) cells (Homo sapiens, UniProt Q99062)
T3 construct: Both cell lines are known to express the G-CSF-R; host or cells: THP-1 (human monocytic cell line), intact cells
T3 sequence (Q99062 25-836): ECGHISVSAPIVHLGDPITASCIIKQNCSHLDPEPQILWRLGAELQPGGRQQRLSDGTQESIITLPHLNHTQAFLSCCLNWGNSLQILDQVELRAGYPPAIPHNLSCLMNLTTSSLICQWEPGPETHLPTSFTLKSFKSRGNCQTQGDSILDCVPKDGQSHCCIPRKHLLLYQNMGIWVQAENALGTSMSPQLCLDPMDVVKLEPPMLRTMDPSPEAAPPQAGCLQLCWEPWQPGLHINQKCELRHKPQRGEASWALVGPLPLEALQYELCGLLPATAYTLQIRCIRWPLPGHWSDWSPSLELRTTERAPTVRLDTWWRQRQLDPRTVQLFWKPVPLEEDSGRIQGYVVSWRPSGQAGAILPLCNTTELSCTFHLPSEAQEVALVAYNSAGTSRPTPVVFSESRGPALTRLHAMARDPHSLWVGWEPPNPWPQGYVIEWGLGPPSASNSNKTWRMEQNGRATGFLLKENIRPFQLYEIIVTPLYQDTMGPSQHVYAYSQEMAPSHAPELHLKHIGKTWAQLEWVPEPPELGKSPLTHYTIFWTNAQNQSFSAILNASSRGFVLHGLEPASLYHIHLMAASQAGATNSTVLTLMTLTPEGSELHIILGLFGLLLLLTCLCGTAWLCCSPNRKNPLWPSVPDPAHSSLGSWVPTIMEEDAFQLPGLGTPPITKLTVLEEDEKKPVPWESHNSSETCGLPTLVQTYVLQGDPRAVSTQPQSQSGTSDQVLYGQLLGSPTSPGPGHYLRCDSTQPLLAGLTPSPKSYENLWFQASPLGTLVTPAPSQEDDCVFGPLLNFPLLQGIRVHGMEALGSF


Experiments:
[1] = system: PKCδVIII and Bcl2 expressed in SH-SY5Y neuronal cells; assay: Western blot of PKCδVIII and Bcl2 in SH-SY5Y neuronal cells; format: cell-based, human; details: for effect on G-CSF-induced Bcl2 expression / effect on G-CSF-induced PKCδVIII expression / Bcl2 protein expression / PKCδVIII protein expression: SH-SY5Y, 24 h; for effect on G-CSF-induced Bcl2 expression / effect on G-CSF-induced PKCδVIII expression: co-incubation with G-CSF 100 ng/mL; for Bcl2 protein expression / PKCδVIII protein expression: compound alone, three concentrations; for agonist/antagonist profile at the G-CSF receptor: neuronal cell line (SH-SY5Y)
Description: (§1) THP-1 cells or SH-SY5Y cells 3×10^6 cells in 5 mL media in a 25 cm^2 flask were treated with 100 ng/mL G-CSF or three different concentrations of the test drug for 24 h. In addition, a set of flasks were co-incubated with the combination of G-CSF and 3 concentrations of test drug. Whole cell lysates ([…]) were separated on 10% polyacrylamide gel electrophoresis-SDS (PAGE-SDS). Proteins were electrophoretically transferred to nitrocellulose membranes, blocked with 5% nonfat milk prepared on Tris buffered saline containing 0.1% Tween 20, washed and incubated with a polyclonal antibody against either Bcl2 (Cell Signaling, Danvers, Mass.) or PKCδVIII-specific polyclonal antibody (Jiang, K., et al. Biochemistry 2008, 47, 787-797). The house keeping gene GAPDH was used as an internal standard. Following incubation with anti-rabbit IgG-HRP, enhanced chemiluminesence (Pierce™, Thermo Scientific, Walthahm, Mass.) was used for detection and the gels were analyzed using UN-SCAN-IT™ software (Silk Scientific, Inc., Orem, Utah).
(§2) Statistical analysis. Densitometric results from Western blots were analyzed with two-tailed t-tests when only two groups were compared. In other analyses where 3 groups were compared, one-way ANOVA followed by t-tests with Dunnett's corrections for multiple comparisons was utilized. All data was presented as mean±SEM. All statistical analysis of data was done via PRISM4 or PRISM5 statistical analysis software (GraphPad Prism, La Jolla, Calif.). Neurohistologic analyses are performed using ANOVA. All comparisons were considered significant at level of P<0.05.

[2] = system: PKCδVIII and Bcl2 expressed in THP-1 monocytic cells; assay: Western blot of PKCδVIII and Bcl2 in THP-1 monocytic cells; format: cell-based, human; details: for effect on G-CSF-induced Bcl2 expression / effect on G-CSF-induced PKCδVIII expression: THP-1, co-incubation with G-CSF 100 ng/mL; for effect on G-CSF-induced Bcl2 expression / effect on G-CSF-induced PKCδVIII expression / Bcl2 protein expression / PKCδVIII protein expression: 24 h; for Bcl2 protein expression / PKCδVIII protein expression: THP-1, compound alone, three concentrations; for agonist/antagonist profile at the G-CSF receptor: monocytic cell line (THP-1)
Description: as §1, with “In” for “THP-1 cells or SH-SY5Y cells 3×10^6 cells in 5 mL media in a 25 cm^2 flask were treated with 100 ng/mL G-CSF or three different concentrations of the test drug for 24 h. In”
as §2

[3] = target: T1, G-CSF receptor expressed on human monocytes; assay: Competition/displacement of [125I]-G-CSF from its receptor on monocytes; format: binding; details: monocytic cells
Description: Cells, prepared as described above, were incubated in 180 μL of binding medium containing 0.2% BSA, 5 mM MgSO4 and 50 mM Hepes, pH 7.2 at a concentration of 1.5×10^7 cells/mL and the appropriate concentration of [^125I]-G-CSF. This was followed by addition of increasing concentrations of each study compound (10 to 3000 nM). After 2 hrs of incubation, the amount of bound and free [^125I]-G-CSF was determined, as described above. […] Each concentration was analyzed in triplicate and experiments were repeated three times. These experiments were conducted in human monocytic and neuronal cell lines.
Displacement studies were then conducted for each of the 10 compounds. […] Compounds 6 and 10, which displaced greater than 75% of the ^125I-G-CSF, were further studied for their capacity to mimic or block the intracellular signaling triggered by the natural ligand.

[4] = target: T2, G-CSF receptor on neuronal (SH-SY5Y) cells; assay: Saturation binding of [125I]-G-CSF to its receptor on SH-SY5Y cells; details: [125I]-G-CSF specific binding
Source text: (§3) Two human cell lines were chosen for cell culture studies. One was a human monocyte cell line that is representative of the peripheral immune system, THP-1, which grows in suspension. The other cell line was a human neuroblastoma cell line (SH-SY5Y) which is a mixed cell line although only adherent cells were utilized (Xie, H. R., et al. Chin. Med. J. (Engl) 2010, 123, 1086-92). Both cell lines are known to express the G-CSF-R. Both cell lines were purchased from ATCC (Manassas, Va.). THP-1 cells were cultured in RPMI-1640 medium supplemented with 10% fetal bovine serum (FBS) plus 1% penicillin-streptomycin (ATCC, Manassas, Va.) in a humidified atmosphere of 5% CO2 at 37° C. […]
(§4) Binding of [^125I]-G-CSF was measured using previously described method (Kondo, S., et al. Eur. J. Haematol. 1991, 46, 223-30) with some modifications (Pennington, A., et al. Alzheimer's Disease and Parkinsonism 2013, 3, 121). […] Nonspecific binding of [^125I]-G-CSF was measured by incubations in the presence of a 100-fold molar excess of unlabeled G-CSF. […] Bound and free ligand activities were counted after cutting tubes in two pieces and placing the tips and tops, respectively into separate scintillation vials. […] The specific binding was determined from the amount of bound [^125I]-G-CSF blocked by competition with excess unlabeled G-CSF. […]

[5] = target: T3, G-CSF receptor on monocytic (THP-1) cells; assay: Saturation binding of [125I]-G-CSF to its receptor on THP-1 cells; details: [125I]-G-CSF specific binding
Source text: as §3, §4

Row | IC50 [3] | Bmax [4] | Hill Coefficient [4] | Bmax [5] | Hill Coefficient [5] | Molecule | effect on G-CSF-induced Bcl2 expression [1] | effect on G-CSF-induced PKCδVIII expression [1] | Bcl2 protein expression [1] | PKCδVIII protein expression [1] | agonist/antagonist profile at the G-CSF receptor [1] | effect on G-CSF-induced Bcl2 expression [2] | effect on G-CSF-induced PKCδVIII expression [2] | Bcl2 protein expression [2] | PKCδVIII protein expression [2] | agonist/antagonist profile at the G-CSF receptor [2]
1 | 13.7 nM |  |  |  |  | COc1ccc2[nH]cc(C3NC(N)=Nc4nc5ccccc5n43)c2c1 (centres unmarked) [Compound 6, 4-(5-methoxy-1H-indol-3-yl)-3,4-dihydro-[1,3,5]-triazino-[1,2a]benzimidazol-2-amine] | did not change the expression of either Bcl2 or PKCδVIII | did not change the expression of either Bcl2 or PKCδVIII | significantly increased Bcl2 protein expression at the low and intermediate, but not the high concentration; also recorded: at the highest concentration increases PKCδVIII without changing Bcl2 expression | stimulated PKCδVIII protein expression to levels equivalent to G-CSF alone; also recorded: at the highest concentration increases PKCδVIII | did not act as an antagonist of G-CSF action; also recorded: appear to act as agonists at the G-CSF receptor | blocked the increase in Bcl2 and PKCδVIII protein expression | blocked the increase in Bcl2 and PKCδVIII protein expression | increased expression of Bcl2 | but not PKCδVIII at all 3 concentrations | mixed agonist/antagonist
2 | 2.3 nM |  |  |  |  | NC1=Nc2nc3ccccc3n2C(c2c[nH]nc2-c2cccc([N+](=O)[O-])c2)N1 (centres unmarked) [Compound 10, 4-[3-(3-nitrophenyl)-1H-pyrazol-4-yl]-3,4-dihydro[1,3,5]triazino[1,2-a]-benzimidazol-2-amine] | did not block the actions of G-CSF | did not block the actions of G-CSF | increased expression of both PKCδVIII and Bcl2 protein to levels equivalent to G-CSF alone | increased expression of both PKCδVIII and Bcl2 protein to levels equivalent to G-CSF alone | appear to act as agonists at the G-CSF receptor; also recorded: appeared to function as a G-CSF agonist | blocking the effects of G-CSF on Bcl2 expression; also recorded: at the lowest concentration antagonized the effects of G-CSF | did not antagonize the effects on PKCδVIII protein expression; also recorded: at the lowest concentration antagonized the effects of G-CSF | significantly elevating expression of both Bcl2 and PKCδVIII | significantly elevating expression of both Bcl2 and PKCδVIII | mixed agonist/antagonist
3 |  | 4826 pM | 2.7 and 2.71 | 901 pM | 1.19 | [^125I]-G-CSF: radio-labeled G-CSF (specific activity 46.55 TBq/mmol) purchased from Perkin Elmer (protein, 125I radiolabel (specific activity 46.55 TBq/mmol); labelled residue not stated) TPLGPASSLPQSFLLKCLEQVRKIQGDGAALQEKLVSECATYKLCHPEELVLLGHSLGIPWAPLSSCPSQALQLAGCLSQLHSGLFLYQGLLQALEGISPELGPTLDTLQLDVADFATTIWQQMEELGMAPALQPTQGAMPAFASAFQRRAGGVLVASHLQSFLEVSYRVLRHLAQP |  |  |  |  |  |  |  |  |  | 

Source: US10813913B2, “Small molecules that mimic or antagonize actions of granulocyte colony-stimulating-factor (G-CSF)” (UNIVERSITY OF SOUTH FLORIDA, priority 2016, dated 2020)
